The results in this text go back to patent US20170044521A1, “BIOMASS EXTRACTS AND METHODS THEREOF” (Lakeview Nutrition LLC, priority 2014, published 2017).

Structures are written as SMILES. Read-outs that look alike come from different tables or passages of the source.

Data set [1] is described as follows: Bioavailability study: absorption of DDGS phytochemicals in plasma of mice after oral gavage of DDGS extracts. The note with it: oral gavage of 2 mL alcohol extract (AE) or oil extract (OE) of DDGS, plasma sampled at 0, 0.5, 1.0, 3.0, 7.0 and 24 hr, HPLC.
Protocol: (§1) Thirty-six male CD-1 mice (22-24 g) were purchased from Charles River Labs (Wilmington, Mass.). Before the study, they were allowed acclimation for at least 3 days in an SPF facility. Animal housing, handling and procedures were conducted under the protocols or guidelines approved by the Institutional Animal Care and Use Committee (IACUC) of Cephrim Biosciences, Inc. (Woburn, Mass.). Three mice were housed in each cage. The temperature, humidity and light/dark cycle were well maintained at 68-76° F., 40-60% relative humidity, with a 12 h light/dark cycle. Mice were allowed free access to water and food.
(§2) On the first day of the study, the mice were randomly assigned into two groups, alcohol extract (AE, of DDGS) group and oil extract (OE, of DDGS) group. Each group of mice was further divided into 6 subgroups, representing 6 time points (i.e., 0 hr, 0.5 hr, 1.0 hr, 3.0 hr, 7.0 hr and 24 hr). Each of two extracts was given to each group of mice by oral gavage at the dosage of 2 mL for AE and 2 mL for OE. The time of dosing was set as the Time Zero. Blood samples were collected by cardiac puncture and were immediately transferred to a set of heparinized tubes.
(§3) Blood samples at Time-0 hr were collected right before dosing. And at each of rest 5 time points the Time-0.5 hr, -1.0 hr, -3.0 hr, -7.0 hr and −24 hr after the extracts were given, blood samples were collected from each subgroup (n=3). All blood samples were placed on ice after their collection and were spun at 14000 rpm/min. The top plasma were transferred into new pre-labeled tubes and the samples were stored at −70° C. until analysis.
(§4) Mice plasmas (150 pt) were mixed with 600 pt of hexane and shaken at 200 rpm for 10 min. The mixtures were centrifuged at 14,000 rpm for 6 min. The supernatant was evaporated to dryness under nitrogen and replaced with 100 pt of methanol. […]
(§5) Compounds were separated on a C30 reverse-phase column (250×4.6 mm, 5 um) at a flow rate of 1 mL/min. […] The detection was conducted in a fluorescence detector with excitation of 292 nm and emission of 336 nm. […]
For data set [2] the following is noted: mouse, in vivo, po.
Protocol: as §1, §2, §3, §4, §5

In the case of `Cc1c(O)cc2c(c1C)O[C@](C)(CCC[C@H](C)CCC[C@H](C)CCCC(C)C)CC2` [gamma-tocopherol], the “time of maximal absorption in plasma of mice after gastric infusion” value (shortened to “time of maximal absorption”) in data set [1] stood at 3 h.

With `Cc1c(C)c2c(c(C)c1O)CC[C@@](C)(CCC[C@H](C)CCC[C@H](C)CCCC(C)C)O2` [alpha-tocopherol], the “time of maximal absorption” value in data set [2] was determined as 3 h.

On to `CC(C)=CCC/C(C)=C/CC/C(C)=C/CC[C@]1(C)CCc2cc(O)cc(C)c2O1` [delta-tocotrienol], for which, in data set [2], the “time of maximal absorption” value came out at 24 h.
